# Laboratory results published in patent publication US9539270B2, “Methods for providing sialylated oligosaccharides” (priority 2011, dated 2017).
# Target: T1, Trypanosoma cruzi trans-sialidase (TcTS) (Trypanosoma cruzi, UniProt Q26966)
# T1 construct: 6xHis (N); made in house; host or cells: E. coli TOP10 or BL21(DE3)
# Assay: Affinity of TcTS for the sialic acid donor substrates (kinetic incubations with lactose as acceptor)
# Format: biochemical
# Conditions: TcTS 4.5 mU/ml; 0.1-10.0 mM 4MU-Neu5Ac as donor; 1 mM lactose as acceptor
# Procedure: In kinetic experiments with partially purified TcTS, 4MU-Neu5Ac or industrially available κ-casein-derived glycomacropeptide (GMP) as donors and lactose as acceptor, the formation of 3′SL was quantitatively determined after 15 and 30 min of incubation, making use of high-pH anion-exchange chromatography with pulsed amperometric detection (HPAEC-PAD). For both donors, the optimal temperature for the transfer reaction, deduced from a series of temperatures ranging from 15-50° C., with increments of 5° C., turned out to be 25° C., which is similar to the optimal temperature reported in literature (Scudder et al., J. Biol. Chem. 268: 9886-9891, 1993).
# The affinity of TcTS for the sialic acid donor substrates 4MU-Neu5Ac and GMP was tested by performing incubations (4.5 mU/ml) with an appropriate range of these substrates and a fixed concentration of lactose as acceptor.
# T1 sequence (Q26966 entry or part of it): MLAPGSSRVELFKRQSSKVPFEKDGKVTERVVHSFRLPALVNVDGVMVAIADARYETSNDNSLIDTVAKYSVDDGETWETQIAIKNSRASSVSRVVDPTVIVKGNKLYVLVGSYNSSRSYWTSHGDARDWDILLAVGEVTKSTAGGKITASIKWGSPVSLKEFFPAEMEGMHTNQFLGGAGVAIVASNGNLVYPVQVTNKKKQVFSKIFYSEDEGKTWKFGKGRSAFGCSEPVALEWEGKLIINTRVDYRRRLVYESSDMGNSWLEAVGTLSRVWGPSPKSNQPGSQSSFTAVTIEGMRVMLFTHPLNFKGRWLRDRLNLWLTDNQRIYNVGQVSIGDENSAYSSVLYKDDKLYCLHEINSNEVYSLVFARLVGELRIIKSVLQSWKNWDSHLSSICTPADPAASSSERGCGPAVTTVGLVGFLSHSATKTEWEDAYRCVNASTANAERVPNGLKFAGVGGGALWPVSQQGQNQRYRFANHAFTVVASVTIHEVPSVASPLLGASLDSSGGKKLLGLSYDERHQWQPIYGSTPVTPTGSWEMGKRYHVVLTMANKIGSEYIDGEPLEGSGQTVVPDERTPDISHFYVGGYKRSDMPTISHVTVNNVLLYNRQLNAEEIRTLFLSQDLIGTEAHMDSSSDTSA
smiles,measurement,value
"CC(=O)N[C@H]1[C@H]([C@H](O)[C@H](O)CO)OC(Oc2ccc3c(C)cc(=O)oc3c2)(C(=O)O)C[C@@H]1O (stereo partly drawn) [4MU-Neu5Ac, 2′-(4-methylumbelliferyl)-α-N-acetylneuraminic acid]",Km,1650 µM
same,Vmax,1.5 U/mg
